Assay results published in patent publication US9018173B2, “Materials and methods for suppressing inflammatory and neuropathic pain” (Indiana University Research and Technology Corp., priority 2010, dated 2015).
Residues, ends and D or L forms follow the SMILES beside them.

How the values were obtained:
[1] = tested on: tail kinking and body contortion; assay: Observation of side-effects after i.p. injection in mice; assay type: in vivo
Description: Referring now to FIG. 24. Biodistribution and side-effects of TAT-CBD3. […] Oxygenated blood was collected from a cardiac puncture. […] The 95% confidence limits are also indicated.
The possible effects of TAT-CBD3 on motor coordination, locomotor function, sedation (rotarod test) and hippocampal-dependent memory (Morris water-maze test) was investigated.

[2] = tested on: formalin-induced nocifensive behavior; assay: Formalin test; assay type: in vivo, rat; details: 30 μM intraplantar, 30 min before formalin
Experimental: Referring now to FIG. 16. TAT-CBD3 reduces acute, inflammatory and neuropathic pain. (FIG. 16A) Time course of number of flinches following subcutaneous (dorsal surface of paw) injection of formalin (2.5%; 50 μl saline) in animals pretreated with peptides (3-100 μM; 20 μl dorsal surface of paw) 30 min before formalin (n=4-10). (FIG. 16B) The effect of peptides on number of flinches on formalin-induced phase 1 (0-10 min) and phase 2 (15-60 min). *, p<0.05 versus formalin-injected animals. (FIG. 16C) Formalin induces paw edema. Paw thickness was measured 1 h after injection of saline, formalin, and formalin+peptides (100 μM). *, p<0.05 versus saline-injected animals. (FIG. 16D) Pretreatment with TAT-CBD3 attenuates capsaicin-evoked nocifensive behavior. Vehicle (0.3% DMSO) or peptides (concentrations as indicated) in saline (40 μL) was instilled corneally and nocifensive behavior noted. […]
Behavioral analyses. […] For the eye-wipe test, vehicle, TAT control or TAT CBD3 peptides (30 μM, 40 μl) were pipetted directly into the right eye and the resulting nocifensive behavior was measured. […] This nocifensive behavior was recorded for five minutes and followed by capsaicin (3 μM; 40 μl saline) application into the pretreated eye. […]

| Compound | side-effects immediately following injection ([1]; 10 and 50 mg/kg) | tail kinking episodes ([1]; n=7 each condition) | dose giving mild motor impairment relative to dose required to reduce hypersensitivity in vivo ([1]; transient tail kinking and body contortion) | body contortion ([1]; up to 50 mg/kg, n=7) | formalin-induced flinching, phase 1 and phase 2 [2] |
| --- | --- | --- | --- | --- | --- |
| CC(C)C[C@H](NC(=O)CNC(=O)[C@H](CCCNC(=N)N)NC(=O)[C@@H]1CCCN1C(=O)[C@@H](NC(=O)CNC(=O)[C@H](CCCNC(=N)N)NC(=O)[C@H](CC(C)C)NC(=O)[C@H](CCC(=O)O)NC(=O)[C@H](C)NC(=O)[C@H](CC(C)C)NC(=O)[C@H](CCCNC(=N)N)NC(=O)[C@H](CO)NC(=O)[C@H](CCCNC(=N)N)NC(=O)[C@H](C)NC(=O)[C@H](CCCNC(=N)N)NC(=O)[C@H](CCCNC(=N)N)NC(=O)[C@H](CCCNC(=N)N)NC(=O)[C@H](CCC(N)=O)NC(=O)[C@H](CCCNC(=N)N)NC(=O)[C@H](CCCNC(=N)N)NC(=O)[C@H](CCCCN)NC(=O)[C@H](CCCCN)NC(=O)[C@H](CCCNC(=N)N)NC(=O)CNC(=O)[C@@H](N)Cc1ccc(O)cc1)C(C)C)C(=O)O [TAT-CBD3] (H-YGRKKRRQRRRARSRLAELRGVPRGL-OH; N-terminus and C-terminus assumed) | A single episode of kinking at the base of the tail and whole body contortion was observed in mice | only a single episode of tail kinking movement was observed in the mice | more than 50 fold | no body contortion was observed in mice |  |
| ARSRLAELRGVPRGL (CBD3) |  |  |  |  | displayed blunted nociceptive behaviors in both phases |
